Measurements reported in ChEMBL document CHEMBL1144130, “11-Deoxyfistularin-3, a new cytotoxic metabolite from the caribbean sponge Aplysina fistularis insularis” (1999).
≈ marks a conversion by molar mass, not a printed value.

How the values were obtained:
Format in all cases: functional
HEp-2 = test: Cytotoxicity against human Hep2 cells after 96 hrs by MTT assay; settings: HEp-2, 96 h, read-out: LD50 (the source's name)
LoVo = test: Cytotoxicity against human LoVo cells after 96 hrs by MTT assay; settings: read-out: LD50 (the source's name)
[1] = Cytotoxicity against human XL17 cells after 96 hrs by MTT assay; settings: XL17, 96 h, read-out: LD50 (the source's name)
RD = test: Cytotoxicity against human RD cells after 96 hrs by MTT assay; settings: read-out: LD50 (the source's name)
HeLa = test: Cytotoxicity against human HeLa cells after 96 hrs by MTT assay; settings: read-out: LD50 (the source's name)
MCF7 = test: Cytotoxicity against human MCF7 cells after 96 hrs by MTT assay; settings: MCF7, 96 h, read-out: LD50 (the source's name)

COC1=C(Br)[C@H](O)[C@@]2(C=C1Br)CC(C(=O)NCCCOc1c(Br)cc(C(O)CNC(=O)C3=NO[C@]4(C=C(Br)C(OC)=C(Br)[C@@H]4O)C3)cc1Br)=NO2 (stereo partly specified)
CC50 (HEp-2): 17 µg/mL (≈ 15.5 µM)
CC50 (LoVo): 17 µg/mL (≈ 15.5 µM)
CC50 [1]: 17 µg/mL (≈ 15.5 µM)
CC50 (RD): 17 µg/mL (≈ 15.5 µM)
CC50 (HeLa): 17 µg/mL (≈ 15.5 µM)
CC50 (MCF7): > 50 µg/mL
